We go through three compounds from patent publication EP2045247B1, “Compounds for the inhibition of histone deacetylase” (NatureWise Biotech & Medicals Corporation, priority 2007, dated 2009).

The structures appear in SMILES notation.

Experiment [1] relates to acetylated histone H4. The experiment is described as follows: Western blotting of hyperacetylated histone H4 in C6 glioma cell lysates. It is filed as cell-based, rat. Particulars: C6 glioma cells. As for the experimental part:
Accumulation of hyperacetylated histone H4 was analyzed in the cell lysates by using Western Blotting and the antibody directed against acetylated histone H4 (Upstate). The C6 glioma cells were seeded at a density of 1×10^6 per 10cm culture dish. After 24 hours, the cells were treated with 10 µg/mL of NBM-HD-1 or 4mM sodium butyrate for several hours. The whole-cell lysates were prepared by using denaturing SDS sample buffer and then separated on 15% SDS-polyacrylamide gels. […] The amount of acetylated histones was hardly detectable in untreated C6 glioma cells. The amount of acetylated histone H4 of the cells treated with 4mM sodium butyrate for 2 hours increased. Sodium butyrate was then removed from the culture medium. After 6 hours, the amount of acetylated histone H4 decreased. The accumulation of acetylated histone H4 increased in the cells treated with NBM-HD-1 for 2 hours. […] The highest histone acetylation appeared at 6 hours after the compound had been removed. […] Because NBM-HD-1 is more hydrophobic than sodium butyrate, NBM-HD-1 can be retained in the cells longer than sodium butyrate and continuously induce the acetylation of histone H4.

Experiment [2] deals with human giloblastoma DBTRG-05MG cancer cells. Nature of the experiment: Inhibition of growth and change of morphology of DBTRG-05MG cells. It is filed as cell-based. Particulars: NBM-HD-1 2.5, 5 and 10 µg/mL, sodium butyrate 4 mM; 72 hours; density and cell counting (Fig. 7). As for the experimental part:
The human giloblastoma DBTRG-05MG cancer cells were cultured in RPMI medium 1640 (Gibco) supplemented with penicillin G, streptomycin sulphate, 0.5 mM of L-glutamine and 10% fetal bovine serum (FBS; Gibco), 100mh/L sodium pyruvate (Gibco), and 1% NEAA (Gibco) at 37 °C, 5% CO2 and 95% relative humidity. For these experiments, the cells were seeded at a density of 3×10^5 per well of 6-well plates. After 24 hours, the cells were treated with different concentrations of NBM-HD-1 and 4 mM sodium butyrate. The cells were observed and counted after 72 hours. […] In 05MG cells (Fig. 7(A)), after incubation with 2.5 µg/mL (Fig. 7(A)-b), 5 µg/mL (Fig. 7(A)-c) and 10 µg/mL (Fig.7(A)-d) of NBM-HD-1 for 72 hours, the density of the cells reduced dramatically in comparison with that of the control group (Fig. 7(A)-a). The 05MG cells in the experimental group also changed to become longer than those in the control group.

Experiment [3] deals with breast cancer MCF-7 cells. The experiment is described as follows: Inhibition of growth and change of morphology of MCF-7 cells. It is filed as cell-based, human. The following applies: 2.5, 5, 7.5 and 10 µg/mL; for morphology of MCF-7 cells: 72 hours (Fig. 13(A), Fig. 14(A)); for growth of MCF-7 cancer cells: sodium butyrate 4mM, observed and counted after 72 hours (Fig. 13, Fig. 14). The protocol:
The breast cancer MCF-7 cells, were cultured in Dulbecco's modified Eagle's medium (DMEM; Gibco) supplemented with penicillin G, streptomycin sulphate, 0.5 mM of L-glutamine and 10% fetal bovine serum (FBS; Gibco) at 37 °C, 5% CO2 and 95% relative humidity. The cells were seeded at a density of 3×10^5 per well of 6-well plates. After 24 hours, the cells were treated with different concentrations of compound NBM-HD-1 and 4mM sodium butyrate being used as the positive control. The cells were observed after 48 hours and counted after 96 hours. […] In Fig. 8(A), after the cells were incubated with 2.5 µg/mL (Fig. 8(A)-b), 5 µg/mL (Fig. 8(A)-c) and 10 µg/mL (Fig. 8(A)-d) of NBM-HD-1 for 48 hours, the density of MCF-7 cells reduced dramatically in comparison with that of the control group (Fig. 8(A)-a). The morphology of the MCF-7 cells in the experimental group changed in comparison with that in the control group. […] The results of the cell counting (FIG. 8(B)) indicate that, similar to sodium butyrate, NBM-HD-1 inhibits cell growth.
MCF-7 cancer cells were seeded at a density of 3×10^5 per well in 6-well plates. After 24 hours, the cells were treated with different concentrations of compound NBM-HD-2 and 4mM sodium butyrate being used as the positive control. The cells were observed and counted after 72 hours. […] In Fig. 13(A), after the cells were incubated with 2.5 µg/mL (Fig. 13(A)-c), 5 µg/mL (Fig. 13(A)-d), 7.5 µg/mL (Fig. 13(A)-e) and 10 µg/mL (Fig. 13(A)-f) of NBM-HD-2 for 72 hours, the density of MCF-7 cells reduced dramatically in comparison with that of the control group (Fig. 13(A)-a). The morphology of the MCF-7 cells in the experimental group changed in comparison with that in the control group.
MCF-7 cancer cells were seeded at a density of 3×10^5 per well of 6-well plates. After 24 hours, the cells were treated with different concentrations of compound NBM-HD-3 and 4mM sodium butyrate, which was being used as the positive control. The cells were observed and counted after 72 hours. […] In Fig. 14(A), after the cells were incubated with 2.5 µg/mL (Fig. 14(A)-c), 5 µg/mL (Fig. 14(A)-d), 7.5 µg/mL (Fig. 14(A)-e) and 10 µg/mL (Fig. 14(A)-f) of NBM-HD-3 for 72 hours, the density of MCF-7 cells reduced dramatically in comparison with that of the control group (Fig. 14(A)-a). The morphology of the MCF-7 cells in the experimental group changed in comparison with that in the control group. […] The results of the cell counting (FIG. 14(B)) indicate that, similar to sodium butyrate, NBM-HD-3 inhibits cell growth.

Take `CCCC(=O)[O-].[Na+]` [sodium butyrate, reference compound]: in experiment [1] (10 µg/mL NBM-HD-1 or 4mM sodium butyrate, 2 hours (Fig. 5)), the “accumulation of acetylated histone H4, treated for 2 hours” value is reported as “increased”. In addition, the “amount of acetylated histone H4 after removal of the compound from the culture medium” value in experiment [1] (up to 6 hours after removal (Fig. 5)) is reported as “decreased”. In experiment [2], the “growth of 05MG cells” value is recorded as “could inhibit the proliferation of 05MG cancer cells”.

On to `COc1cc2c(c(O)c1CC=C(C)C)C(=O)C[C@@H](c1ccc(OC)c(OC)c1C/C=C(\C)CCCC(C)(C)O)O2` [NBM-HD-2], for which, in experiment [3], the “morphology of MCF-7 cells” value was “change their morphology” and the “growth of MCF-7 cancer cells” value is reported as “can inhibit the growth of MCF-7 cancer cells in a dose-dependent manner”.

For the compound `COc1cc2c(c(O)c1CCC(C)(C)O)C(=O)C[C@@H](c1ccc(OC)c(OC)c1C/C=C(\C)CCCC(C)(C)O)O2` [NBM-HD-3], in experiment [3], the “morphology of MCF-7 cells” value is “change their morphology” and the “growth of MCF-7 cancer cells” value is “can inhibit the growth of MCF-7 cancer cells in a dose-dependent manner”.
